Test results published in patent US12612412B2, “Antiviral heterocyclic compounds” (Enanta Pharmaceuticals, Inc., priority 2021, dated 2026).

Columns and labels:
[1] = system: genotype A, "Long" strain RSV; test: RSV-A assay (CPE protection in Hep-2 cells, ATPlite readout); format: cell-based, Human respiratory syncytial virus (HRSV); settings: human respiratory syncytial virus, genotype A “Long” strain RSV, MOI 0.1, CPE protection, read-out: Human RSV-A (“Long”)
Procedure, shortened: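 In this cytopathic-effect protection format, infected Hep-2 cultures (MOI 0.1) are exposed to compound for 5 days. Surviving cell ATP is quantified with ATPlite, and EC50 is determined.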

[2] = system: HMPV clinical isolate TN/1501/A1; test: HMPV antiviral assay Method-B (clinical isolate TN/1501/A1 in LLC-MK2 cells, ATP-Lite readout); format: cell-based, Human metapneumovirus (HMPV); settings: human metapneumovirus, LLC-MK2, 144 h, hMPV WT1501 (clinical isolate TN/1501/A1), 6 days
Procedure, shortened: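 LLC-MK2 cells infected in suspension with TN/1501/A1 at MOI 0.014 in serum-free medium with 2 μg/mL TPCK-trypsin (final), incubated 6 days at 37° C. Compounds tested in duplicate, 10-point 3-fold dilutions from 10 μM. Cell health read by ATP-Lite luminescence, normalised to virus-only and cells-only controls; EC50 by four-parameter logistic fit.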

| EC50 [1] [nM] | EC50 [2] [nM] | Compound |
| --- | --- | --- |
| < 200 | > 500 | Cc1cnc2c(Cl)cc(C(=O)NC[C@](O)(c3cc4c(c(-c5cc(Cl)c(F)c(Cl)c5)n3)OC[C@]4(C)C(N)=O)C(F)(F)F)cc2c1 [Example 675] |
| < 200 | < 500 | COc1cc(C(=O)NC[C@](O)(c2cc3c(c(-c4ccc(Cl)c(F)c4F)n2)OC[C@]3(C)C(N)=O)C2CC2)cc2cn(C3CC3)nc12 [Example 683] |
| < 200 | < 500 | COc1cc(C(=O)NC[C@](O)(c2cc3c(c(-c4ccc(Cl)c(F)c4F)n2)OC[C@]3(C)C(N)=O)C2CC2)cc2cn(C(F)F)nc12 [Example 684] |
| < 200 | < 500 | COc1cc(C(=O)NC[C@](O)(c2cc3c(c(-c4ccc(Cl)c(F)c4F)n2)OC[C@]3(C)C(N)=O)C2CC2)cc2cn(C3(F)CC3)nc12 [Example 685] |
| < 200 | < 500 | C[C@]1(C(N)=O)COc2c1cc([C@@](O)(CNC(=O)c1cc(Cl)c3nn(C4CC4)cc3c1)C1CC1)nc2-c1ccc(Cl)c(F)c1F [Example 686] |
| < 200 | < 500 | COc1cc(C(=O)NC[C@](O)(c2cc3c(c(-c4ccc(Cl)c(F)c4F)n2)OC[C@]3(C)C(N)=O)C2CC2)cc2cc(Cl)c(C)nc12 [Example 687] |
| < 200 | < 500 | Cc1cnc2c(Cl)cc(C(=O)NC[C@](O)(c3cc4c(c(-c5ccc(Cl)c(F)c5F)n3)OC[C@]4(C)C(N)=O)C3CC3)cc2c1 [Example 688] |
| < 200 | > 500 | COc1cc(C(=O)NC[C@](O)(c2cc3c(c(-c4ccc(F)cc4)n2)OC[C@]3(C)C(N)=O)C(F)(F)F)n2ccnc2c1 [Example 691] |
| < 200 | > 500 | COc1ccc(C(=O)NC[C@](O)(c2cc3c(c(-c4ccc(F)cc4)n2)OC[C@]3(C)C(N)=O)C(F)(F)F)c2cc[nH]c12 [Example 693] |
| < 200 | > 500 | COc1ccc(C(=O)NC[C@](O)(c2cc3c(c(-c4ccc(F)cc4)n2)OC[C@]3(C)C(N)=O)C(F)(F)F)n2cc(C)nc12 [Example 694] |
| < 200 | > 500 | COc1ccc(C(=O)NC[C@](O)(c2cc3c(c(-c4ccc(F)cc4)n2)OC[C@]3(C)C(N)=O)C(F)(F)F)n2cc(C3CC3)nc12 [Example 695] |
| < 200 | > 500 | COc1ccc(C(=O)NC[C@](O)(c2cc3c(c(-c4ccc(F)cc4)n2)OC[C@]3(C)C(N)=O)C(F)(F)F)c2[nH]ccc12 [Example 696] |
| < 200 | < 500 | COc1cc(C(=O)NC[C@](O)(c2cc3c(c(-c4ccc5c(c4)OC(F)(F)O5)n2)OC[C@]3(C)C(N)=O)C(F)(F)F)cc2cc(C3CC3)nn12 [Example 697] |
| < 200 | > 500 | C[C@]1(C(N)=O)COc2c1cc([C@@](O)(CNC(=O)c1cc(F)c3nc(N)sc3c1)C(F)(F)F)nc2-c1ccc2c(c1)OC(F)(F)O2 [Example 698] |
| < 200 | > 500 | COc1ccc(C(=O)NC[C@](O)(c2cc3c(c(-c4ccc(F)cc4)n2)OC[C@]3(C)C(N)=O)C(F)(F)F)n2ccnc12 [Example 699] |
| < 200 | > 500 | COc1ccc(C(=O)NC[C@](O)(c2cc3c(c(-c4ccc5c(c4)OC(F)(F)O5)n2)OC[C@]3(C)C(N)=O)C(F)(F)F)n2ccnc12 [Example 700] |
| < 200 | > 500 | C[C@]1(C(N)=O)COc2c1cc([C@@](O)(CNC(=O)c1ccc(OC3CC3)c3nccn13)C(F)(F)F)nc2-c1ccc(F)cc1 [Example 702] |
| < 200 | < 500 | COc1cc(C(=O)NC[C@](O)(c2cc3c(c(-c4ccc(F)c(Cl)c4)n2)OC[C@]3(C)C(N)=O)C2CC2)cc2cc(C3CC3)nn12 [Example 703] |
| < 200 | < 500 | C[C@]1(C(N)=O)COc2c1cc([C@@](O)(CNC(=O)c1cc(F)c3nc(N)sc3c1)C1CC1)nc2-c1ccc(F)c(Cl)c1 [Example 704] |
| < 200 | < 500 | COc1cc(C(=O)NC[C@](O)(c2cc3c(c(-c4ccc(F)cc4)n2)OC[C@]3(C)C(N)=O)C2(F)CC2)cc2cn(C3CC3)nc12 [Example 705] |
| < 200 | < 500 | COc1cc(C(=O)NC[C@](O)(c2cc3c(c(-c4ccc(F)cc4)n2)OC[C@]3(C)C(N)=O)C2(F)CC2)cc2cc(C3CC3)nn12 [Example 706] |
| < 200 | < 500 | COc1cc(C(=O)NC[C@](O)(c2cc3c(c(-c4ccc(F)cc4)n2)OC[C@]3(C)C(N)=O)C2(F)CC2)cc2cc(Cl)c(C)nc12 [Example 707] |

Further lines, the molecule ahead of its results:

| Compound | EC50 [1] [nM] | EC50 [2] [nM] |
| --- | --- | --- |
| COc1cc(C(=O)NC[C@](O)(c2cc3c(c(-c4ccc(F)cc4)n2)OC[C@]3(C)C(N)=O)C(F)(F)F)cc2c(F)n(C3CC3)nc12 [Example 649] | < 200 | > 500 |
| COc1cc(C(=O)NC[C@](O)(c2cc3c(c(-c4ccc5c(c4)OC(F)(F)O5)n2)OC[C@]3(C)C(N)=O)C2CC2)cc2c(F)n(C3CC3)nc12 [Example 650] | < 200 | < 500 |
| COc1cc(C(=O)NC[C@](O)(c2cc3c(c(-c4ccc(F)c(C(F)(F)F)c4)n2)OC[C@]3(C)C(N)=O)C2CC2)cc2cn(C3(F)CC3)nc12 [Example 651] | < 200 | < 500 |
| COc1cc(C(=O)NC[C@](O)(c2cc3c(c(-c4ccc(F)cc4Cl)n2)OC[C@]3(C)C(N)=O)C2CC2)cc2cn(C3(F)CC3)nc12 [Example 652] | < 200 | < 500 |
| COc1cc(C(=O)NC[C@](O)(c2cc3c(c(-c4ccc(F)cc4)n2)OC[C@@H]3C(N)=O)C(F)(F)F)cc2cn(C3CC3)nc12 [Example 653] | < 200 | > 500 |
| COc1cc(C(=O)NC[C@](O)(c2cc3c(c(-c4cc(F)c(F)cc4Cl)n2)OC[C@]3(C)C(N)=O)C(F)(F)F)cc2cn(C3CC3)nc12 [Example 654] | < 200 | < 500 |
| COc1cc(C(=O)NC[C@](O)(c2cc3c(c(-c4ccc(F)c(C(F)(F)F)c4)n2)OC[C@]3(C)C(N)=O)C2CC2)cc2cn(C(F)F)nc12 [Example 655] | < 200 | < 500 |
| COc1cc(C(=O)NC[C@](O)(c2cc3c(c(-c4ccc(F)cc4Cl)n2)OC[C@]3(C)C(N)=O)C2CC2)cc2cn(C(F)F)nc12 [Example 656] | < 200 | < 500 |
| COc1cc(C(=O)NC[C@](O)(c2cc3c(c(-c4cc(F)c(F)cc4Cl)n2)OC[C@]3(C)C(N)=O)C2CC2)cc2cn(C(F)F)nc12 [Example 658] | < 200 | < 500 |
| COc1cc(C(=O)NC[C@](O)(c2cc3c(c(-c4cc(F)c(F)cc4Cl)n2)OC[C@]3(C)C(N)=O)C2CC2)cc2cn(C3(F)CC3)nc12 [Example 659] | < 200 | < 500 |
| COc1cc(C(=O)NC[C@](O)(c2cc3c(c(-c4cc(F)c(F)cc4Cl)n2)OC[C@]3(C)C(N)=O)C2CC2)cc2cc(Br)cnc12 [Example 660] | < 200 | < 500 |
| COc1cc(C(=O)NC[C@](O)(c2cc3c(c(-c4cc(Cl)c(F)cc4F)n2)OC[C@]3(C)C(N)=O)C2CC2)cc2cn(C3CC3)nc12 [Example 661] | < 200 | < 500 |
| COc1cc(C(=O)NC[C@](O)(c2cc3c(c(-c4cc(Cl)c(F)cc4F)n2)OC[C@]3(C)C(N)=O)C2CC2)cc2cn(C(F)F)nc12 [Example 662] | < 200 | < 500 |
| COc1cc(C(=O)NC[C@](O)(c2cc3c(c(-c4cc(Cl)c(F)cc4F)n2)OC[C@]3(C)C(N)=O)C2CC2)cc2cn(C3(F)CC3)nc12 [Example 663] | < 200 | < 500 |
| COc1cc(C(=O)NC[C@](O)(c2cc3c(c(-c4cc(Cl)c(F)cc4F)n2)OC[C@]3(C)C(N)=O)C2CC2)cc2cc(Br)cnc12 [Example 664] | < 200 | < 500 |
| Cc1cnc2c(OC(F)F)cc(C(=O)NC[C@](O)(c3cc4c(c(-c5cc(Cl)c(F)cc5F)n3)OC[C@]4(C)C(N)=O)C3CC3)cc2c1 [Example 665] | < 200 | < 500 |
| COc1cc(C(=O)NC[C@](O)(c2cc3c(c(-c4cc(Cl)c(F)cc4F)n2)OC[C@]3(C)C(N)=O)C2CC2)cc2cc(Cl)c(C)nc12 [Example 666] | < 200 | < 500 |
| C[C@]1(C(N)=O)COc2c1cc([C@@](O)(CNC(=O)c1cc(Cl)c3nn(C4CC4)cc3c1)C1CC1)nc2-c1cc(Cl)c(F)cc1F [Example 668] | < 200 | < 500 |
| COc1cc(C(=O)NC[C@](O)(c2cc3c(c(-c4cc(Cl)c(F)c(Cl)c4)n2)OC[C@]3(C)C(N)=O)C(F)(F)F)cc2cn(C3CC3)nc12 [Example 669] | < 200 | > 500 |
| COc1cc(C(=O)NC[C@](O)(c2cc3c(c(-c4cc(Cl)c(F)c(Cl)c4)n2)OC[C@]3(C)C(N)=O)C(F)(F)F)cc2cn(C(F)F)nc12 [Example 670] | < 200 | > 500 |
| COc1cc(C(=O)NC[C@](O)(c2cc3c(c(-c4cc(Cl)c(F)c(Cl)c4)n2)OC[C@]3(C)C(N)=O)C(F)(F)F)cc2cn(C3(F)CC3)nc12 [Example 671] | < 200 | > 500 |
| COc1cc(C(=O)NC[C@](O)(c2cc3c(c(-c4cc(Cl)c(F)c(Cl)c4)n2)OC[C@]3(C)C(N)=O)C(F)(F)F)cc2cc(Br)cnc12 [Example 672] | < 200 | > 500 |
| C[C@]1(C(N)=O)COc2c1cc([C@@](O)(CNC(=O)c1cc(Cl)c3nn(C4CC4)cc3c1)C(F)(F)F)nc2-c1cc(Cl)c(F)c(Cl)c1 [Example 673] | < 200 | > 500 |
| COc1cc(C(=O)NC[C@](O)(c2cc3c(c(-c4cc(Cl)c(F)c(Cl)c4)n2)OC[C@]3(C)C(N)=O)C(F)(F)F)cc2cc(Cl)c(C)nc12 [Example 674] | < 200 | > 500 |
